Earlier results on three compounds are cited in US7671073B2, “Cyclohexylalanine derivatives as dipeptidyl peptidase-IV inhibitors for the treatment or prevention of diabetes” (Merck Sharp & Dohme Corp., priority 2004, dated 2010).

The conditions of data set [1]: mouse, cyclophosphamide-induced neutropenia; WO 99/56753.
For data set [2] the following is noted: rats; Transplantation, 63: 1495-1500 (1997).
Data set [3] deals with T1, DP-IV (Homo sapiens, UniProt P27487).
T1 construct: GRF is rapidly degraded in plasma to GRF[3-44]
T1 sequence (P27487 whole entry): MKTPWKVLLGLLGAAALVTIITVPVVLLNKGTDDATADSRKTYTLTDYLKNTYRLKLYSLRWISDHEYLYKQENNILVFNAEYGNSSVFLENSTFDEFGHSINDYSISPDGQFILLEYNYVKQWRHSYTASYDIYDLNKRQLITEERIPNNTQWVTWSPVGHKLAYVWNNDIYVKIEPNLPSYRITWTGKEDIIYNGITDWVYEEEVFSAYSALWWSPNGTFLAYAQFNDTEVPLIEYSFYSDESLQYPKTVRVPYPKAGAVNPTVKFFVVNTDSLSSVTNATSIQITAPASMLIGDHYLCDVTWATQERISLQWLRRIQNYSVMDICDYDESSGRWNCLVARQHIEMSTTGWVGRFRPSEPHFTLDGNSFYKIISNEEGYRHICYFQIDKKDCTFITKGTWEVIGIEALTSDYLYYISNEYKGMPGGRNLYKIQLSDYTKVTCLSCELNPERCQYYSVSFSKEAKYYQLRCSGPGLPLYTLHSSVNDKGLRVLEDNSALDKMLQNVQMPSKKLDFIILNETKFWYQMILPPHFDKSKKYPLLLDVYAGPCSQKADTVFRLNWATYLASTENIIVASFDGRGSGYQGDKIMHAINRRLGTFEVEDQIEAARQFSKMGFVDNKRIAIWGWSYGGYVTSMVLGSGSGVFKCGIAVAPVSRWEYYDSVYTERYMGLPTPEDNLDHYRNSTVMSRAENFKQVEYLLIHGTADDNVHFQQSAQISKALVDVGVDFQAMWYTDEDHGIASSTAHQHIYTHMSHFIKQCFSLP

Take `CC(C)[C@H](N)C(=O)N1CCC[C@H]1B(O)O` [Val-Boro-Pro]: in data set [1], the hematopoiesis entry is given as “stimulated hematopoiesis”.

On to `CC(C)N1CCC(c2ccccc2)(c2ccccc2)CC1` [Prodipine, Pro-Pro-diphenyl-phosphonate], for which the cardiac allograft survival result in data set [2] is “double cardiac allograft survival in rats from day 7 to day 14”.

With diprotin A, the “degradation of GRF to GRF[3-44] in plasma” value in data set [3] was “prevented”.
